In ChEMBL document CHEMBL1135447, “Design and synthesis of tricyclic compounds with enone functionalities in rings A and C: a novel class of highly active inhibitors of nitric oxide production in mouse macrophages” (J Med Chem, 2002):

Species: Mus musculus
Experiment: Inhibitory activity against nitric oxide production induced by interferon-gamma (IFN-gamma) in mouse macrophages
Assay type: functional

Compound | IC50 (Mus musculus) [µM] | IC50 [µM]
CC1(C)C(=O)C(C#N)=C[C@]2(C)C3=CC(=O)C(C#N)=C[C@]3(C)CC[C@@H]12 (racemic) | 0.0021 | 
CC1(C)C(=O)C(C#N)=C[C@]2(C)C3=CC(=O)C=C[C@]3(C)CC[C@@H]12 (racemic) | 0.061 | 
CC(=O)O[C@@H]1CC(=O)C=C2[C@@]3(C)C=C(C#N)C(=O)C(C)(C)[C@@H]3CC[C@]21C (racemic) | 0.053 | 
CC1(C)C(=O)C(C#N)=C[C@]2(C)C3=CC(=O)C(C(=O)O)=C[C@]3(C)CC[C@@H]12 (racemic) | 1.6 | 
CC1(C)CC[C@]2(C(=O)O)CC[C@]3(C)[C@H](C(=O)C=C4[C@@]5(C)C=C(C#N)C(=O)C(C)(C)[C@@H]5CC[C@]43C)[C@@H]2C1 [BARDOXOLONE] | 0.0005 | 
COC(=O)C1=C[C@]2(C)CC[C@H]3C(C)(C)C(=O)C(C#N)=C[C@]3(C)C2=CC1=O (racemic) | 0.091 | 
CC1(C)C(=O)C(C#N)=C[C@]2(C)C3=CCC[C@@H](O)[C@]3(C)CC[C@@H]12 (racemic) | 0.31 | 
CC1(C)C(=O)C(C#N)=C[C@]2(C)C3=CC(=O)C(C(N)=O)=C[C@]3(C)CC[C@@H]12 (racemic) | 0.061 | 
CC1(C)CC[C@]2(C(=O)O)CC[C@]3(C)C(=CC[C@@H]4[C@@]5(C)CC[C@H](O)C(C)(C)[C@@H]5CC[C@]43C)[C@@H]2C1 [OLEANOLIC_ACID] | > 40 | 
CC1(C)C(=O)C(C#N)=C[C@]2(C)C3=CC(=O)C[C@@H](O)[C@]3(C)CC[C@@H]12 (racemic) | 0.075 | 
CC1(C)C(=O)C(C#N)=C[C@]2(C)C3=CC(=O)C=C[C@]3(C)CC[C@@H]12 (stereo in doubt; (-)-6) |  | 0.064
CC(=O)O[C@@H]1CCC=C2[C@@]3(C)C=C(C#N)C(=O)C(C)(C)[C@@H]3CC[C@]21C (racemic) | 0.48 | 
CC1(C)C(=O)C(C#N)=C[C@]2(C)C3=CC(=O)C=C[C@]3(C)CC[C@@H]12 (stereo in doubt; (+)-6) |  | 0.058
